Assay results taken from a melting point compilation (Tetko et al.; mined from patent text by program, amines drawn as free bases though some values may be those of a salt).

Row | SMILES | melting point [°C]
1 | CCOC(=O)C1=C(N)NC(N)=C(C(=O)OCC)C1c1ccccc1 | 139
2 | CN1Cc2c(-c3nc(C4CC4)no3)ncn2-c2cccc(Br)c2C1=O | 187 to 189
3 | CN(C)C=Cc1ncc([N+](=O)[O-])n1CCN(C)C | 81 to 82
4 | CCCCCCCCCCCCCCCCCCNC(=O)SCC(CO)OC (stereo not drawn) | 62 to 63
5 | Cn1c(CC(=O)O)ccc1C(=O)c1ccccc1Cl | 140 to 141
6 | Nc1nc2ccccc2c2c1nc(CCO)n2CC1(O)CCC1 | 132 to 137
7 | O=C(NC1CCN(CCCCc2ccccc2)C1)C12CC3CC(CC(C3)C1)C2 (stereo not drawn) | 82 to 84
8 | COc1cc(OC)cc(C(=O)NCC23CC4CC(CC(C4)C2)C3)c1 | 130 to 133
9 | Nc1ncc2cc(-c3ccccn3)c(N)nc2n1 | 312 to 321
10 | CC(=O)Nc1ccc(Oc2ccc(S(C)(=O)=O)cc2C)cc1 | 169
11 | COc1ccc(OC)c2[nH]c(-c3ccc(Cl)cc3)nc12 | 274 to 276
12 | CCOC(=O)c1ccccc1NCC(=O)N(C)c1ccccc1 | 100
13 | CN1C(=O)CN(c2cccc(Br)c2)NC1=O | 165 to 166
14 | CC(C)(C)NCCCS(=O)(=O)O | > 280
15 | COCCCNC(=O)NC(=O)C(C#N)=NO | 126 to 127
16 | CC(C)c1ccc(-c2ccc(Sc3ccccc3)s2)cc1 | 61 to 63
17 | CCn1ncc2nc(C(N)=O)c(-c3ccccc3)nc21 | 189 to 190
18 | COCCOC(=O)Cc1cc(Oc2ccc(C(F)(F)F)cc2Cl)ccc1[N+](=O)[O-] | 71.9 to 72.5
19 | CONC(=O)COc1c(-c2ccccc2)c(=O)[nH]c2cc(Cl)ccc12 | 205 to 207
20 | CCOC(Cc1ccc(OCc2nc3ccc(OC)cc3n2C)cc1)C(=O)OC (stereo not drawn) | 88 to 92
21 | Cc1oc2c(NC(=O)c3c(Cl)cccc3Cl)cc(C(N)=O)cc2c1C | > 250
22 | COc1cccc(-c2ccccc2C(=O)Nc2ccc(Cl)cc2)c1 | 123 to 124

Row | SMILES | melting point [°C]
23 | O=c1oc(=O)n(C2CC2)c2cc(F)c(F)cc12 | 138 to 139
24 | CN(C(=O)CCCCC1SCC2NC(=O)NC21)c1ccc(/C=C/c2c(F)cccc2F)cc1 (stereo not drawn) | 91 to 93
25 | O=C(O)c1c[nH]c2nc(NCc3ccccc3)nn2c1=O | 240 to 245
26 | O=C(O)CNS(=O)(=O)c1ccc(N2CCC(c3ccccc3)CC2)cc1 | 154 to 156
27 | Nc1ccc(CO)cc1[N+](=O)[O-] | 100 to 101
28 | COc1ccccc1N1CCN(C(=O)Nc2cc(C(C)O)c(C)nc2OC)CC1 (stereo not drawn) | 88 to 90
29 | O=C(O)c1nn(-c2c(Cl)cc(C(F)(F)F)cc2Cl)cc1OC(F)(F)C(F)Cl (racemic) | 149 to 159
30 | CN1CCN(CCCN2c3ccc(F)cc3Sc3ccc(S(=O)(=O)N(C)C)cc32)CC1 | 166 to 169
31 | Nc1c(C(=O)O)cc(Br)nc1Br | 251 to 253
32 | COc1ccc(C(=O)NC(=O)N2CC2C#N)cc1 (stereo not drawn) | 130 to 132
33 | COc1ccc(-c2ccc(C#N)cn2)cc1-c1nc2cc(C#N)ccc2[nH]1 | 316 to 319
34 | N=C(N)NCCCc1nccs1 | 160 to 163
35 | N#CC(C(=O)Cl)=C(c1ccccc1)c1ccccc1 | 157 to 158
36 | Cc1ccc(C(=O)NC(C)(C)C)c(Nc2ccc3cn[nH]c3c2)n1 | 107 to 109
37 | N#Cc1cc(N)ccc1CN1CCC(N2CCOCC2)CC1 | 162 to 165
38 | CN(C)CC1=Cc2ccc(C(=O)Nc3ccc(Br)cc3)cc2CC1 | 175 to 179
39 | COC(=O)C(C(=O)OC)C(Cc1cc(C(F)(F)F)ccc1[N+](=O)[O-])c1ccc(OC)cc1 (stereo not drawn) | 110 to 112
40 | CC(=O)SCC(C)C(=O)N(CC(=O)O)C1Cc2ccccc2C1 (stereo not drawn) | 81 to 83
41 | CNC(=S)Nc1ccccc1-c1ccccc1 | 152 to 153
42 | CCC1(CC)c2cc(Br)ccc2-c2ccc(I)cc21 | 162 to 164
43 | Cc1csc(N=CN(C)C)n1 | 54 to 56
